Assay results published in US20110218188A1, “SUBSTITUTED (PYRIDYL)-AZINYLAMINE DERIVATIVES AS FUNGICIDES” (priority 2008, published 2011).
Marks after values point to notes of the source that are not given here.

Experiment: Measurement of logP values by HPLC on reversed phase columns (EEC directive 79/831 Annex V.A8)
Type: physicochemical

`COCc1cccc(Nc2ncnc(-c3ccnc(C(=O)N(C)CC4CC4)c3)n2)c1` [Example B242] showed a logP (pH 2.7) of 2.58.

Compound `CCN(CC)C(=O)c1cc(-c2ncnc(Nc3cccc(Cl)c3)n2)ccn1` [Example B130] has a logP (pH 2.7) of 3.06.

Compound `CCCN(CCC)C(=O)c1cc(Nc2nccc(-c3ccnc(C(=O)N(CCC)CCC)c3)n2)ccn1` [Example A12] has a logP (pH 2.7) of 2.54.

Work on `CCN(CC)C(=O)c1cc(-c2ncnc(Nc3cccc(F)c3)n2)ccn1` [Example B2] yielded a logP (pH 2.7) of 2.72.

`Cc1ccc(Nc2ncnc(-c3ccnc(C(=O)N(C)C)c3)n2)cc1Cl` [Example B359] gave a logP (pH 2.7) of 2.71.

Compound `O=C(NCC1CC1)c1cc(-c2ncnc(Nc3ccc(F)c(Cl)c3)n2)ccn1` [B198] has a logP (pH 2.7) of 3.83.

In the case of `CON(C)C(=O)c1cc(-c2ncnc(Nc3cccc(Cl)c3)n2)ccn1` [Example B186], the logP (pH 2.7) is reported as 2.59.

`COCCN(C)C(=O)c1cc(Nc2nccc(-c3ccnc(C(=O)N(C)CCOC)c3)n2)ccn1` [Example A4] gave a logP (pH 2.7) of 1.1.

Work on `COc1ccc(Nc2ncnc(-c3ccnc(C(=O)N(C)CC(C)C)c3)n2)cn1` [Example C9] yielded a logP (pH 2.7) of 2.37.

`O=C(c1cc(-c2ncnc(Nc3cccc(Cl)c3)n2)ccn1)N1CCCCC1` [Example B115] showed a logP (pH 2.7) of 3.1.

Compound `CN(C)C(=O)c1cc(-c2ncnc(Nc3cccc(Cl)c3)n2)ccn1` [Example B150] has a logP (pH 2.7) of 2.4.

In the case of `C#CCN(c1cccc(F)c1)c1ncnc(-c2ccnc(C(=S)N(C)CC)c2)n1` [B345], the logP (pH 2.7) is reported as 3.25.

`COCCN(C)C(=O)c1cc(-c2ncnc(Nc3cccc(Cl)c3)n2)ccn1` [Example B172] showed a logP (pH 2.7) of 2.57.

In the case of `C=CCN(C)C(=O)c1cc(-c2ccnc(Nc3ccnc(Cl)c3)n2)ccn1` [Example A25], the logP (pH 2.7) is reported as 2.13.

`CCOC(=O)CNN=C(C)c1cc(-c2ncnc(Nc3cccc(Cl)c3)n2)ccn1` [Example B77] gave a logP (pH 2.7) of 3.02.

For `CCN(CC)C(=S)c1cc(-c2ncnc(Nc3cccc(C(F)F)c3)n2)ccn1` [Example B328], the logP (pH 2.7) was 3.27.

In the case of `CCN(C)C(=S)c1cc(-c2ncnc(Nc3cccc(OC(F)(F)C(F)F)c3)n2)ccn1` [Example B261], the logP (pH 2.7) is reported as 3.41.

Work on `CC(C)C(=O)O/N=C(/N)c1cc(-c2ncnc(Nc3cccc(Cl)c3)n2)ccn1` [B107] yielded a logP (pH 2.7) of 3.69.

`COCc1cccc(Nc2ncnc(-c3ccnc(C(=O)N(C)CC(C)C)c3)n2)c1` [Example B244] showed a logP (pH 2.7) of 2.66.

In the case of `CCCN(CCC#N)C(=O)c1cc(-c2ncnc(Nc3cccc(Cl)c3)n2)ccn1` [B182], the “logP [b]” value (pH 2.3) is reported as 3.13[b].

In the case of `CCN(C)C(=S)c1cc(-c2ncnc(Nc3cccc(C(F)(F)F)c3)n2)ccn1` [Example B257], the logP (pH 2.7) is reported as 3.41.

`CN(CC(F)F)C(=O)c1cc(-c2ncnc(Nc3ccc(F)c(F)c3)n2)ccn1` [Example B382] showed a logP (pH 2.7) of 2.86.

In the case of `CCN(C)C(=O)c1cc(-c2ncnc(Nc3ccc(F)cc3)n2)ccn1` [Example B20], the logP (pH 2.7) is reported as 2.28.

`CCC(=NOC(C1CC1)C1CC1)c1cc(-c2ncnc(Nc3cccc(Cl)c3)n2)ccn1` (mixture of isomers) [B79] showed a logP (pH 2.7) of 6.59.

Work on `COCc1cccc(Nc2ncnc(-c3ccnc(C(=O)N(C)C(COC)C4CC4)c3)n2)c1` (centres unmarked) [B251] yielded a logP (pH 2.7) of 2.69.

Work on `CCCN(C)C(=O)c1cc(-c2ncnc(Nc3cccc(OC(F)(F)F)c3)n2)ccn1` [Example B264] yielded a logP (pH 2.7) of 3.37.

`CCN(C)C(=S)c1cc(-c2ncnc(Nc3cccc(OC)c3)n2)ccn1` [Example B281] showed a logP (pH 2.7) of 2.78.

Work on `COC(=O)c1cc(-c2ncnc(Nc3ccsc3)n2)ccn1` [Example C24, methyl 4-[4-(3-thienylamino)-1,3,5-triazin-2-yl]pyridine-2-carboxylate] yielded a chromatographic logP (pH 2.7) of 2.23.

Compound `CC(C)N(C)C(=O)c1cc(-c2ncnc(Nc3ccccc3)n2)ccn1` [Example B317] has a logP (pH 2.7) of 2.45.

In the case of `COCC(C1CC1)N(C)C(=O)c1cc(-c2ncnc(Nc3cccc(Cl)c3)n2)ccn1` (centres unmarked) [Example B188], the logP (pH 2.7) is reported as 3.09.

`CN(C)C(=O)c1cc(-c2ncnc(Nc3cccc(OC(F)(F)C(F)F)c3)n2)ccn1` [Example B364] gave a logP (pH 2.7) of 2.64.

`CSc1cccc(Nc2ncnc(-c3ccnc(C(=O)NC4CC4)c3)n2)c1` [B213] showed a logP (pH 2.7) of 3.15.

In the case of `CN(C)C(=O)c1cc(-c2ncnc(Nc3cccc(C#N)c3)n2)ccn1` [Example B294], the logP (pH 2.7) is reported as 1.88.

With `CC(C)N(C)C(=O)c1cc(-c2ncnc(Nc3ccc(F)c(F)c3)n2)ccn1` [Example B383] the logP (pH 2.7) was 2.78.

`COCC(C)NC(=O)c1cc(-c2ncnc(Nc3cccc(Cl)c3)n2)ccn1` (centres unmarked) [B51] gave a logP (pH 2.7) of 3.21.

`CCC1CCCCN1C(=O)c1cc(-c2ncnc(Nc3cccc(Cl)c3)n2)ccn1` (centres unmarked) [Example B139] showed a logP (pH 2.7) of 3.8.

In the case of `CC(=NOCC(F)(F)F)c1cc(-c2ncnc(Nc3cccc(Cl)c3)n2)ccn1` (mixture of isomers) [B73], the logP (pH 2.7) is reported as 4.58.

With `COC(=O)c1cc(-c2ncnc(Nc3ccc(F)c(OC)c3)n2)ccn1` [B416] the logP (pH 2.7) was 2.43.

In the case of `CN(CC1CC1)C(=O)c1cc(-c2ncnc(Nc3ccccc3)n2)ccn1` [Example B313], the logP (pH 2.7) is reported as 2.65.

Compound `COc1cccc(Nc2ncnc(-c3ccnc(C(=O)N(C)C(C)C)c3)n2)c1` [Example B279] has a logP (pH 2.7) of 2.51.

Work on `CC(=NNc1ccc(Cl)cc1)c1cc(-c2ncnc(Nc3cccc(Cl)c3)n2)ccn1` [Example B82] yielded a logP (pH 2.7) of 4.97.

In the case of `CCCCN(C)C(=O)c1cc(-c2ncnc(Nc3cccc(F)c3)n2)ccn1` [Example B376], the logP (pH 2.7) is reported as 3.09.

Compound `CCC(CC#N)NC(=O)c1cc(-c2ncnc(Nc3cccc(Cl)c3)n2)ccn1` (centres unmarked) [Example B95] has a logP (pH 2.7) of 3.35.

Compound `CCCN(C)C(=O)c1cc(-c2ncnc(Nc3ccc(F)c(C(F)F)c3)n2)ccn1` [Example B399] has a logP (pH 2.7) of 2.86.

For `CCCCN(CC)C(=O)c1cc(-c2ncnc(Nc3ccc(OC)nc3)n2)ccn1` [Example C11], the logP (pH 2.7) was 2.78.

For `O=C(c1cc(-c2ncnc(Nc3cccc(Cl)c3)n2)ccn1)N1CCCC(O)C1` (centres unmarked) [Example B140], the logP (pH 2.7) was 2.2.

`CN(CCC#N)C(=O)c1cc(-c2ncnc(Nc3ccc(F)c(C(F)F)c3)n2)ccn1` [Example B397] showed a logP (pH 2.7) of 2.37.

Work on `CCN(C)C(=O)c1cc(-c2ncnc(Nc3ccc(C)c(Cl)c3)n2)ccn1` [Example B236] yielded a logP (pH 2.7) of 3.02.

`CN(C)C(=O)c1cc(-c2ncnc(Nc3cccc(F)c3)n2)ccn1` [Example B5] gave a logP (pH 2.7) of 2.13.

Work on `CCCN(C)C(=O)c1cc(-c2ncnc(Nc3ccsc3)n2)ccn1` [Example C14] yielded a logP (pH 2.7) of 2.45.

Compound `CN(CC1CC1)C(=O)c1cc(-c2ncnc(Nc3cccc(OC(F)F)c3)n2)ccn1` [B410] has a logP (pH 2.7) of 2.98.

In the case of `CCCN(C)C(=S)c1cc(-c2ncnc(Nc3cccc(Cl)c3)n2)ccn1` [Example B336], the logP (pH 2.7) is reported as 3.65.

`CN(CCC#N)C(=O)c1cc(-c2ncnc(Nc3cccc(C(F)(F)F)c3)n2)ccn1` [Example B363] showed a logP (pH 2.7) of 2.68.

With `O=C(NCC1CC1)c1cc(-c2ncnc(Nc3cccc(Cl)c3)n2)ccn1` [B99] the logP (pH 2.7) was 3.73.

For `C=C(C)CN(CC)C(=O)c1cc(-c2ncnc(Nc3cccc(Cl)c3)n2)ccn1` [Example B156], the logP (pH 2.7) was 3.67.

Compound `COc1ccc(Nc2ncnc(-c3ccnc(C(=O)N(C)CC4CC4)c3)n2)cn1` [Example C6] has a logP (pH 2.7) of 2.2.

With `CCCN(CCC)C(=O)c1cc(-c2ncnc(Nc3ccc(OC)nc3)n2)ccn1` [Example C3] the logP (pH 7.8) was 2.77^[c].

For `CN(CC1CC1)C(=O)c1cc(-c2ncnc(Nc3cccc(C(F)F)c3)n2)ccn1` [Example B287], the logP (pH 2.7) was 2.82.

For `CC1CC(C)CN(C(=O)c2cc(-c3ncnc(Nc4cccc(Cl)c4)n3)ccn2)C1` (centres unmarked) [Example B155], the logP (pH 2.7) was 3.96.
